The values below come from US20020019527A1 (priority 2000, published 2002).

Where a name gives a salt, the structure may show the parent alone.

T1 sequence (P49355 whole entry, one chain of several): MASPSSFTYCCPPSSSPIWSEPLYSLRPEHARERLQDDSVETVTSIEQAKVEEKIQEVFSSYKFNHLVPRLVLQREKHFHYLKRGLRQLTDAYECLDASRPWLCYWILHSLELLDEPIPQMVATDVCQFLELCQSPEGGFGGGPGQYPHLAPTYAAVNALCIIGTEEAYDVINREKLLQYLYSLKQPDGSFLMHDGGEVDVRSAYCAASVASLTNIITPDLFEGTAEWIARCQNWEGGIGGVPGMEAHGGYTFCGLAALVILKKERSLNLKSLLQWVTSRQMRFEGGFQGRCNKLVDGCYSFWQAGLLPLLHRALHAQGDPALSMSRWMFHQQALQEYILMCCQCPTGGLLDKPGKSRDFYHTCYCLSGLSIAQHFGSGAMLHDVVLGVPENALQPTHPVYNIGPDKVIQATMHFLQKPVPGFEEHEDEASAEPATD

Test system in one data set: not listed separately
Description: Cardiovascular liability test.
Details: not given
Here is the method: Representative compounds of the instant invention were also tested for cardiovascular liability (see Journal of Cardiovascular Pharmacology, 607-618: 37 (2001)).
As to `N#Cc1ccc(COC(c2ccc(C#N)c(-c3cccc4ccccc34)c2)c2cncs2)nc1` (stereo not shown) [Example 291, 6-(((4-cyano-3-(1-naphthyl)phenyl)(1,3-thiazol-5-yl)methoxy)methyl)nicotinonitrile], the “electrophysiological profile (cardiovascular liability)” value is listed as “improved electrophysiological profile”.

Another data set addresses T1, Farnesyltransferase (FTase) (Bos taurus, UniProt P29702+P49355).
T1 construct: precipitation from a beef brain homogenate; from tissue; host or cells: bovine brain
Description: Farnesyltransferase inhibition (scintillation proximity assay, [3H]-FPP / biotin-K-ras peptide). It counts as biochemical, bovine. Conditions: compound at 10^−6 M; bovine FTase, 37° C., 30 minutes. Summed up: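 Read-out: [3H]-FPP prenylation of a biotinylated K-ras peptide by SPA, measured 1 h after quenching. Enzyme: FTase purified from bovine brain (ammonium sulfate cut, DEAE Sepharose), free of GGTase I and II. Test compounds in ethanol, diluted 10-fold into the reaction.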
As to `COC(=O)c1ccc(COC(c2ccc(C#N)c(-c3ccccc3C(F)(F)F)c2)c2cncn2C)nc1` (stereo not shown) [Example 277, methyl 6-(((6-cyano-2′-(trifluoromethyl)(1,1′-biphenyl)-3-yl)(1-methyl-1H-imidazol-5-yl)methoxy)methyl)nicotinate dihydrochloride], the inhibition at 1 µM is 95%. Same read-out and setting: to `Cc1cccc(-c2cc(C(OCc3ccc(C#N)cc3)c3cncn3C)ccc2C#N)c1C` (stereo not shown) [Example 278, 5-(((4-cyanobenzyl)oxy)(1-methyl-1H-imidazol-5-yl)methyl)-2′,3′-dimethyl(1,1′-biphenyl)-2-carbonitrile hydrochloride] belongs 99%; to `Cn1cncc1C(OCc1ccc(C#N)cc1)c1ccc(C#N)c(-c2cccc(Cl)c2Cl)c1` (stereo not shown) [Example 279, 2′,3′-dichloro-5-(((4-cyanobenzyl)oxy)(1-methyl-1H-imidazol-5-yl)methyl)(1,1′-biphenyl)-2-carbonitrile hydrochloride], 99%. `Cn1cncc1C(OCc1ccc(C#N)cn1)c1ccc(C#N)c(-c2cccc(Cl)c2Cl)c1` (stereo not shown) [Example 280, 6-(((2′,3′-dichloro-6-cyano(1,1′-biphenyl)-3-yl)(1-methyl-1H-imidazol-5-yl)methoxy)methyl)nicotinonitrile dihydrochloride]: at 1 µM the inhibition was 98%. In turn, `Cc1cccc(-c2cc(C(OCc3ccc(C#N)cn3)c3cncn3C)ccc2C#N)c1C` (stereo not shown) [Example 281, 6-(((6-cyano-2′,3′-dimethyl(1,1′-biphenyl)-3-yl)(1-methyl-1H-imidazol-5-yl)methoxy)methyl)nicotinonitrile dihydrochloride] gave an inhibition at 1 µM of 98%.

`N#Cc1ccc(COC(c2ccsc2)c2ccc(C#N)c(-c3cccc4ccccc34)c2)nc1` (stereo not shown) [Example 289, 6-(((4-cyano-3-(1-naphthyl)phenyl)(3-thienyl)methoxy)methyl)nicotinonitrile] yielded an inhibition at 1 µM of 75%.

Usually inhibition stands for the share of the control response that was lost under treatment. Read a low inhibition as a response near the control.
